ChEMBL document CHEMBL1201862, “PubChem BioAssay data set” (2004)
Calls of active or inactive are those of the source.

Legend:
[1] = viability loss of HPDE-C7K cells – cell-based, fluorescence, HTS, primary screen (AID 431); assay type: functional; conditions: Homo sapiens
[2] = HPDE-C7 pancreatic duct cell viability loss – fluorescence, HTS (AID 430); assay type: functional, cell-based; conditions: Homo sapiens
[3] = M. tuberculosis H37Rv growth inhibitors, H37Rv strain (AID 1626); assay type: functional
[4] = toxicity to human hepatoma HepG2 cells – cell-based, cherry-picked samples, cytotoxicity control, dose response (AID 1159577); assay type: functional
[5] = OVCAR-3 cell viability loss – plate reader, dry powder samples, PAX8 inhibitor project, dose response (AID 743044); assay type: functional, cell-based
Paired box protein Pax-8 = Paired box protein Pax-8 (Homo sapiens, UniProt Q06710); test: PAX8 transcriptional activity inhibition in RMG-I – RMG-I cells, luciferase, cherry-pick, dose response (AID 687027); assay type: functional, cell-based;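 also: luciferase reporter driven by Pax8 target thyroperoxidase promoter measured by SteadyGlo luminescence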
Chain of Paired box protein Pax-8 (Q06710 whole entry): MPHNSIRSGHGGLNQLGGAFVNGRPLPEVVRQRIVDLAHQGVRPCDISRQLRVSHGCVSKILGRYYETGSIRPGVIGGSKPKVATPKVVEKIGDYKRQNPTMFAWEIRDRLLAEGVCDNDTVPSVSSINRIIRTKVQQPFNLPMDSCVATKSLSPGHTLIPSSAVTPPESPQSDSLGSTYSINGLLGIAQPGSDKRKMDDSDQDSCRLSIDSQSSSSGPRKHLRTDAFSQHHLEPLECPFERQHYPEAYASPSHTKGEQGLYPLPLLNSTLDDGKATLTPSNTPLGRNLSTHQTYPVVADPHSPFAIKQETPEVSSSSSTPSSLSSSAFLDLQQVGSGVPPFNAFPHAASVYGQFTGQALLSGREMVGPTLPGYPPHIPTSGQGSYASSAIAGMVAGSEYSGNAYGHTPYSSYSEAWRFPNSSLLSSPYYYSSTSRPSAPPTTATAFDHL

[6] = P. falciparum Dd2 growth inhibitors, dose response, SYBR Green, cherry-picked samples (AID 1159567); assay type: functional, cell-based
[7] = molecular target: T1, Tyrosine-protein phosphatase non-receptor type 7 (Homo sapiens, UniProt P35236); test: HePTP tyrosine phosphatase activity blockers – biochemical, absorbance, leukemia target, primary screen (AID 521); assay type: functional
T1 sequence (P35236 whole entry): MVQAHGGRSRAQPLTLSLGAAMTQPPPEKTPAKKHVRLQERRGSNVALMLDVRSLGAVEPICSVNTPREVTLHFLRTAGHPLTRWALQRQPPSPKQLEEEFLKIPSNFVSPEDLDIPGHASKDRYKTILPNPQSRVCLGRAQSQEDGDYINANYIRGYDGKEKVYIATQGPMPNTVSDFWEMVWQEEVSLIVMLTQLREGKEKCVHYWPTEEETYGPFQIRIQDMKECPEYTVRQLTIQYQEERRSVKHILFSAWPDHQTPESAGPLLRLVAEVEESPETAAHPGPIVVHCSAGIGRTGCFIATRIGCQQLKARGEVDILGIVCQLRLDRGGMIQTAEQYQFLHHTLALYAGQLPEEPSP

Caspase-6 = molecular target: T2, Caspase-6 (Homo sapiens, UniProt P55212); test: inhibition of CASP6 peptide cleavage – biochemical, VEID-R110 fluorescence, cherry-pick, dose response (AID 720632)
T2 sequence (P55212 whole entry): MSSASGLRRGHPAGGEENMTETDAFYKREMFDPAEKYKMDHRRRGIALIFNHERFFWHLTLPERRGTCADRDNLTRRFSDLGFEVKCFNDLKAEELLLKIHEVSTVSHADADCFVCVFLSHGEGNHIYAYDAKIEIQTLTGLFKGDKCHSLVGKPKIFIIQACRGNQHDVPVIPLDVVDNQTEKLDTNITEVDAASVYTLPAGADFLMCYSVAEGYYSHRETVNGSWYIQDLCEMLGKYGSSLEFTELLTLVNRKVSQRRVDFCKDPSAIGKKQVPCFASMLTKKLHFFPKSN

[8] = molecular target: T3, Carboxy-terminal domain RNA polymerase II polypeptide A small phosphatase 1 (Homo sapiens, UniProt Q9GZU7); test: CTDSP1 inhibitors, concentration-response, biochemical, absorbance readout, ultra-high-throughput screen actives (AID 540297); assay type: functional
T3 sequence (Q9GZU7 whole entry): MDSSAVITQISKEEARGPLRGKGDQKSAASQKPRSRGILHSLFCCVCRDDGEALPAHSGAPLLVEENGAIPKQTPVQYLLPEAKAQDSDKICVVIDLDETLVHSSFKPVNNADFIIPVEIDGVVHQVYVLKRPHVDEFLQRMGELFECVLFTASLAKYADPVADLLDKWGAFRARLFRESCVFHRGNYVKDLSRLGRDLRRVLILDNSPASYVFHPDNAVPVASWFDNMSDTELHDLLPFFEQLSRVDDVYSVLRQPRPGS

Cytochrome P450 2C19 = Cytochrome P450 2C19 (Homo sapiens, UniProt P33261); test: Cytochrome panel assay with activity outcomes. Panel member name: p450-cyp2c19 Compounds with AC50 equal or less than 10 uM are considered active; assay type: functional; conditions: read-out: AC50
Chain of Cytochrome P450 2C19 (P33261 whole entry): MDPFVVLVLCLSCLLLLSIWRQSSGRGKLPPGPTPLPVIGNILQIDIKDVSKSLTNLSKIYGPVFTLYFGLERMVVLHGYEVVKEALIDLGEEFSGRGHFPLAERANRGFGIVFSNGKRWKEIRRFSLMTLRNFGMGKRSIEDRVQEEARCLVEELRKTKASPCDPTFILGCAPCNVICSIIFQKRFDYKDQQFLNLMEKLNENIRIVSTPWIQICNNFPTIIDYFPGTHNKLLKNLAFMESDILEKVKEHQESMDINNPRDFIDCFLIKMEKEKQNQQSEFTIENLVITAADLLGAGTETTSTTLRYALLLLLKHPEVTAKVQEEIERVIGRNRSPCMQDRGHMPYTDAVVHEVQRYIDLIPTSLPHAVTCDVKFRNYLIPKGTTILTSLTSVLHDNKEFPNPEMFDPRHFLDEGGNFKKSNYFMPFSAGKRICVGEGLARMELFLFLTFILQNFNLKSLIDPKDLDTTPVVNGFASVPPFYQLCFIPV

Protein RecA = molecular target: T4, Protein RecA (Mycobacterium tuberculosis, UniProt P9WHJ3); test: Fluorescence Cell-Free Homogeneous Dose Retest to Identify Inhibitors of RecA-Intein Splicing Activity. [Related pubchem assays (depositor defined):AID2097, AID2223, AID489010, AID492950]; assay type: functional
T4 sequence (P9WHJ3 whole entry): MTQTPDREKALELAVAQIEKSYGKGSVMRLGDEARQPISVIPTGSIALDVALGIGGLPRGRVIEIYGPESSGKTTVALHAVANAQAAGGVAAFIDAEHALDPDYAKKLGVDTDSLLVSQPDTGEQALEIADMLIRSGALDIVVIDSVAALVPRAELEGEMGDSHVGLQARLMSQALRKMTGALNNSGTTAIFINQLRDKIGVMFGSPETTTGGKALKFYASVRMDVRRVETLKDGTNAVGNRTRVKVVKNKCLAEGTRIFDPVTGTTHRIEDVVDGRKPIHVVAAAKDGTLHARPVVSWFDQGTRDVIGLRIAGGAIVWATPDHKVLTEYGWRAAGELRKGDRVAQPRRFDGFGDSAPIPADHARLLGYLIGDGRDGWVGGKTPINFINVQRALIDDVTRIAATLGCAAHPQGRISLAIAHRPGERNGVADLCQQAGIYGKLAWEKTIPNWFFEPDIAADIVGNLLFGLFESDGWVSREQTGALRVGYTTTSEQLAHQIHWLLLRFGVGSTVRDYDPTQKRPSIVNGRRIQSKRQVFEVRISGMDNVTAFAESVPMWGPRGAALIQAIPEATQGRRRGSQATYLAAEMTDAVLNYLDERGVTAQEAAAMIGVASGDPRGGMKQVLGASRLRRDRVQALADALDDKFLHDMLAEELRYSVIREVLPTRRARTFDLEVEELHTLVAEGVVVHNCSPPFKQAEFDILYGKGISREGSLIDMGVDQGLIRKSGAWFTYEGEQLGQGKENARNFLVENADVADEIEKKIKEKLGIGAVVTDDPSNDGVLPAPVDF

[9] = molecular target: T5, Corticotropin-releasing factor receptor 2/Corticotropin-releasing factor-binding protein (Homo sapiens, UniProt P24387+Q13324); test: activators of CRF receptor 2 with binding protein – uHTS hits, confirmation (AID 602473); assay type: functional; conditions: read-out: EC50_Mean
T5 sequence (Q13324 whole entry): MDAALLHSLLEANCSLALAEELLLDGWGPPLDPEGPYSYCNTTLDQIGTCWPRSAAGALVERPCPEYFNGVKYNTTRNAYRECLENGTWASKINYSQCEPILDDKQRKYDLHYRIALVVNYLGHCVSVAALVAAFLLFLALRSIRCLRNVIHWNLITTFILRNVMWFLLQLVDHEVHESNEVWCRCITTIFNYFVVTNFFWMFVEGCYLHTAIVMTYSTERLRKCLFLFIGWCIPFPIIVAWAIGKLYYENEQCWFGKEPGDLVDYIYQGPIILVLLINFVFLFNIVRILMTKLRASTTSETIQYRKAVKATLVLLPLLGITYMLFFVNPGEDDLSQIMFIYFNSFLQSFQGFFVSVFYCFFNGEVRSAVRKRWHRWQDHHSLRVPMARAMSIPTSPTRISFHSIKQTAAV
T5 sequence (P24387 whole entry): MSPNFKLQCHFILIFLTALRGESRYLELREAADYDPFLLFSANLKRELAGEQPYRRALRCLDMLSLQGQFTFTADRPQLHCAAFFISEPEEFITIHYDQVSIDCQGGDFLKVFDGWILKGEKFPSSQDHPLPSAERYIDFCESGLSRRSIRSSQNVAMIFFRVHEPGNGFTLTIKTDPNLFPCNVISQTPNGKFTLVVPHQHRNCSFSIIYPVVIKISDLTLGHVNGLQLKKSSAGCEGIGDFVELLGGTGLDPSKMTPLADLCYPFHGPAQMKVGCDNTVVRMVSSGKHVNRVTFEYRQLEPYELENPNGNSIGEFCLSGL

[10] = molecular target: T6, Replicative DNA helicase DnaB (Mycobacterium tuberculosis, UniProt P9WMR3); test: DnaB intein splicing inhibitors, dose response, biochemical, cell-free fluorescence (AID 449749); assay type: functional
T6 sequence (P9WMR3 whole entry): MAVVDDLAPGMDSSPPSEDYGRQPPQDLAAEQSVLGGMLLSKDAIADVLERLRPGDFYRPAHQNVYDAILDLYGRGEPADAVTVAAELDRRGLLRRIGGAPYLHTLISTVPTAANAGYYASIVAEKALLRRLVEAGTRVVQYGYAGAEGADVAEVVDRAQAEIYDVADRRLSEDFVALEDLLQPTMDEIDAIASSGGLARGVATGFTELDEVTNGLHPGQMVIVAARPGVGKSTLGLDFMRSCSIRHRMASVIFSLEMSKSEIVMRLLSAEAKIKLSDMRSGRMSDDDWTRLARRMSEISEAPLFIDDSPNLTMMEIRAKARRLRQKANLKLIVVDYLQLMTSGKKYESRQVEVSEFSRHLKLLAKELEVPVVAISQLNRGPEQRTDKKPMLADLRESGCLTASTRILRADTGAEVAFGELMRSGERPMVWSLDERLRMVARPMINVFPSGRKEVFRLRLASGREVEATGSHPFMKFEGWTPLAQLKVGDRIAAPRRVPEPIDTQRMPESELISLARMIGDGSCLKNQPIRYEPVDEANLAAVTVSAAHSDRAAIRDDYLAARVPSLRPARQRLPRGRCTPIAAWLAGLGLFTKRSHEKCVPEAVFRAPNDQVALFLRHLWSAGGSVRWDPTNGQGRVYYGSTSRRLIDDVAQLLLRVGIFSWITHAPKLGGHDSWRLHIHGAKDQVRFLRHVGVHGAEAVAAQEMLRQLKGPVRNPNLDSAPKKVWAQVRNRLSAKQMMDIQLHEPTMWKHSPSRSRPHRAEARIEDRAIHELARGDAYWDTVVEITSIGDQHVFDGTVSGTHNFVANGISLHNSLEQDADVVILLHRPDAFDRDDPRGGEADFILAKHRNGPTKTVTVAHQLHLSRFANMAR

[11] = mitochondrial function rescue without frataxin homolog – Friedreich's ataxia, plus single-dose screen, dose response (AID 1465); assay type: functional;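 also: yeast depleted of Yfh1p frataxin homolog grown on glycerol needing respiration; WST-1 tetrazolium dye reduction as measure of cellular dehydrogenase metabolic activity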

Structure (SMILES): COc1cc(NC(=O)C2CCCCN2)ccc1OCC(C)C (stereo not drawn)
- EC50 [1]: > 20 µM (not active)
- EC50 [2]: > 20 µM (not active)

Structure (SMILES): O=C(COC(=O)C1COc2ccccc2O1)NC(=O)Nc1ccc2c(c1)OCCO2 (stereo not drawn)
- IC50 [3]: > 100 µM (active)

Structure (SMILES): O=C(Nc1ccccc1)N1C[C@@H]2N[C@H](C1)[C@@H]2c1ccc(/C=C/c2ccccc2)cc1
- AC50 [4]: 7.17 µM (active)
- AC50 [5]: 33.5 µM (active)
- AC50 (Paired box protein Pax-8): 22.6 µM (active)
- AC50 [6]: 1.85 µM (active)

Structure (SMILES): O=C(OCN1C(=O)c2ccccc2C1=O)c1cccs1
- IC50 [7]: > 100 µM (not active)

Structure (SMILES): O=C(NC1=NCCS1)c1ccc2c(c1)C(=O)N(Cc1ccco1)C2=O
- IC50 [7]: > 100 µM (not active)

Structure (SMILES): O=[N+]([O-])c1ccc(-c2ccc(/C=N/O)o2)cc1
- IC50 [3]: > 100 µM (active)

Structure (SMILES): Nc1ccc(C(=O)Nc2ccc3c(O)cc(S(=O)(=O)O)cc3c2)cc1
- AC50 (Caspase-6): 8.79 µM (active)
- IC50 [8]: 4.61 µM (active)

Structure (SMILES): CC(=O)NC1(c2cccc(F)c2)CCN(CC(=O)NC2CCCCC2)CC1
- EC50 [1]: > 20 µM (not active)
- AC50 (Cytochrome P450 2C19): 3.55 µM (inconclusive)
- EC50 [2]: > 20 µM (not active)

Structure (SMILES): O=C([C-](C1=[N+](Cc2ccc(Cl)nc2)CCN1Cc1ccc(Cl)nc1)[N+](=O)[O-])C(Cl)Cl
- EC50 (Protein RecA): 3.48 µM (active)
- AC50 (Caspase-6): 8.77 µM (active)
- EC50 [9]: > 53 µM (inactive)
- AC50 [10]: 2.03 µM (active)

Structure (SMILES): O=C(NC1CCCCCC1)c1c(F)c(F)c(F)c(F)c1F
- IC50 [7]: > 100 µM (not active)

Structure (SMILES): NS(=O)(=O)c1cccc(NC(=O)c2ccc3[nH]cnc3c2)c1
- AC50 (Caspase-6): 17.3 µM (active)
- IC50 [8]: 7.41 µM (active)

Structure (SMILES): CN(C)c1ccc(/C=C(/C(=O)c2ccc(Cl)cc2Cl)n2cncn2)cc1
- EC50 [11]: > 100 µM (active)
